Assay results reported in patent US20220249643A1, “ANTI-NEOPLASTIC COMBINED PHARMACEUTICAL COMPOSITION AND APPLICATION THEREOF” (priority 2019, published 2022).
“Also recorded” adds a separate entry of the source. Where two headings read alike, the source gives them in different places.

What was measured:
[1] = system: Plasmodium yoelii; experiment: Infection rate of Plasmodium (parasitemia) in tumor-bearing mice, Plasmodium yoelii; assay type: in vivo
[2] = system: mouse Lewis lung carcinoma (LLC); assay type: in vivo, C57BL/6 mice; conditions: for Significance, survival (intergroup comparison): vs Con
[3] = system: mouse Lewis lung carcinoma (LLC); assay type: in vivo, C57BL/6 mice; conditions: vs Con
[4] = assay type: in vivo, C57BL/6 mice
Source text: The effects of the chemotherapeutic agent and Plasmodium infection on the weight of tumor-bearing mice were observed.

[5] = system: Plasmodium chabaudi
Protocol: (III) Preparation of thin blood film and microscopic examination: about 1-1.5 μL of blood was collected from tails of mice and smeared on slides so that a long tongue-shaped thin blood film with a length of 2.5 cm was prepared and blow-dried with a blower. The blood film was infiltrated with methanol for 1 min, stained with 1× Giemsa stain for 30 min, rinsed with tap water and blow-dried. The infection rate of Plasmodium was observed by a 100× oil immersion objective. Changes of the infection rate of Plasmodium were observed.
(V) Inoculation of tumor-bearing mice: 7 days after tumor was subcutaneously inoculated, each mouse was inoculated with 0.2 mL of Plasmodium, that is, 5×10^5 Plasmodium parasites.
(III) Statistics of the infection rate of Plasmodium: the infection rate of Plasmodium was evaluated by a percentage of red blood cells infected with Plasmodium in mice, where the calculation formula was (the number of red blood cells infected with Plasmodium/a total number of red blood cells)×100%. Specific procedures were as follows: blood was taken from tail veins and smeared on a slide, fixed with methanol, and stained with Giemsa stain. The number of red blood cells infected with Plasmodium and the total number of red blood cells were observed under a microscope. The total number of red blood cells was about 1000.

[6] = Example 5, CTX 20 mg/kg×3 ip day 6, 13, 20, Py day 7
[7] = Example 6, CTX 20 mg/kg×3 ip day 6, 13, 20, Pc day 7
[8] = Example 1, GEM 100 mg/kg ip on day 3
[9] = Example 1, GEM 100 mg/kg ip on day 6
[10] = Example 2, GEM divided 50 mg/kg ip day 6 and day 13
[11] = Example 2, GEM single dose 100 mg/kg ip day 6
[12] = Example 3, GEM 50 mg/kg ip day 6 and day 13, Py day 7
[13] = Example 4, GEM 50 mg/kg ip day 6 and day 13, Pc day 7

In the case of COc1cc([C@@H]2c3cc4c(cc3[C@@H](O[C@@H]3O[C@@H]5CO[C@@H](C)O[C@H]5[C@H](O)[C@H]3O)[C@H]3COC(=O)[C@H]23)OCO4)cc(OC)c1O [etoposide], the “effect on Plasmodium infection” value ([1]; Example 11, VP16 low and high dosage) is reported as “obvious inhibitory effect on Plasmodium”.
In the case of Nc1nc2[nH]cc(CCc3ccc(C(=O)N[C@@H](CCC(=O)O)C(=O)O)cc3)c2c(=O)[nH]1 [PEM, pemetrexed], the “effect on Plasmodium infection” value ([1]; Example 7, PEM 20 mg/kg×6 ip) is reported as “relatively small effect on Plasmodium; also recorded: no inhibitory effect on Plasmodium yoelii”, the median survival time ([2]; Example 7, PEM 20 mg/kg×6 ip, Py day 7) is reported as 32.5 days and the “Significance, tumor growth (intergroup comparison)” value (shortened to “Significance, tumor growth”) ([3]; Example 7, PEM 20 mg/kg×6 ip day 3, 7, 10, 14, 17, 21, Py day 7) is reported as “** (“**” represents p<0.01)”.
With CC(=O)O[C@@]12CO[C@@H]1C[C@H](O)[C@@]1(C)C(=O)[C@H](O)C3=C(C)[C@@H](OC(=O)[C@H](O)[C@@H](NC(=O)OC(C)(C)C)c4ccccc4)C[C@@](O)([C@@H](OC(=O)c4ccccc4)[C@H]21)C3(C)C [docetaxel] the “effect on Plasmodium infection” value ([1]; Example 10, DTX high dosage 2 mg/kg×3) was “significantly inhibit Plasmodium”, the “effect on Plasmodium infection” value ([1]; Example 10, DTX low dosage 2.2 mg/kg×3) was “relatively small effect on Plasmodium” and the “effect on Plasmodium infection” value ([1]; Example 10, DTX medium dosage 6.7 mg/kg×3) was “significantly inhibit Plasmodium”. For the same compound, the “effect on weight of tumor-bearing mice” value ([4]; Example 10, in the combined therapy, DTX high dosage) was “very significant effect in reducing the weight of the tumor-bearing mice”, the “effect on weight of tumor-bearing mice” value ([4]; Example 10, in the combined therapy, DTX low dosage) was “relatively small effects” and the “effect on weight of tumor-bearing mice” value ([4]; Example 10, in the combined therapy, DTX medium dosage) was “relatively small effects”.
For O=P1(N(CCCl)CCCl)NCCCO1 (centres unmarked) [CTX, cyclophosphamide], the “effect on Plasmodium infection” value ([1]; Example 5, CTX 20 mg/kg×3 ip) was “relatively small effect on Plasmodium”, the median survival time [2, 6] was 37 days and the “Significance, survival (intergroup comparison)” value (“Significance, survival” below) ([2]; Example 5) was “** (“**” represents p<0.01)”. The median survival time [2, 7] was 39.5 days, the “Significance, survival” value ([2]; Example 6) was “* (“*” represents p<0.05)” and the “Significance, tumor growth” value [3, 6] was “* (“*” represents p<0.05)”. The “Significance, tumor growth” value [3, 7] was “* (“*” represents p<0.05)”, the “effect on weight of tumor-bearing mice” value ([4]; Example 5, CTX 20 mg/kg×3 ip, Py day 7) was “affected little” and the “effect on weight of tumor-bearing mice” value ([4]; Example 6, CTX 20 mg/kg×3 ip, Pc day 7) was “affected little”. For the same compound, the “effect on Plasmodium infection” value ([5]; Example 6, CTX 20 mg/kg×3 ip) was “relatively small effect on Plasmodium chabaudi”.
For CO[C@@]12[C@H](COC(N)=O)C3=C(C(=O)C(C)=C(N)C3=O)N1C[C@@H]1N[C@@H]12 [mitomycin], the “effect on Plasmodium infection” value ([1]; Example 9, MMC low, medium, high dosage, the higher concentration, the more obvious) was “certain inhibitory effect on Plasmodium” and the “effect on weight of tumor-bearing mice” value ([4]; Example 9, three combined treatment groups) was “affected little”.
With Nc1ccn([C@@H]2O[C@H](CO)[C@@H](O)C2(F)F)c(=O)n1 [GEM, gemcitabine] the “effect on Plasmodium infection” value ([1]; Example 1, GEM 100 mg/kg ip day 3 or day 6) was “certain inhibitory effect on Plasmodium yoelii but will not eliminate Plasmodium”, the “effect on Plasmodium infection” value ([1]; Example 2, GEM single dose or divided doses, total 100 mg/kg) was “certain inhibitory effect on Plasmodium” and the “effect on Plasmodium infection” value ([1]; Example 3, GEM 50 mg/kg ip day 6 and day 13) was “certain inhibitory effect on Plasmodium yoelii but will not eliminate Plasmodium yoelii”. The median survival time [2, 8] was 34.5 days, the median survival time [2, 9] was 33 days and the “Significance, survival” value [2, 8] was “* (“*” represents p<0.05)”. For the same compound, the “Significance, survival” value [2, 9] was “** (“**” represents p<0.01)”, the median survival time [2, 10] was 38.5 days and the median survival time [2, 11] was 33 days. The median survival time [2, 12] was 36 days, the “Significance, survival” value [2, 12] was “** (“**” represents p<0.01)” and the median survival time [2, 13] was 35 days. The “Significance, tumor growth” value [3, 8] was “** (“**” represents p<0.01)”, the “Significance, tumor growth” value [3, 9] was “** (“**” represents p<0.01)” and the “Significance, tumor growth” value [3, 10] was “** (“**” represents p<0.01)”. The “Significance, tumor growth” value [3, 11] was “** (“**” represents p<0.01)”, the “Significance, tumor growth” value [3, 12] was “** (“**” represents p<0.01)” and the “Significance, tumor growth” value [3, 13] was “** (“**” represents p<0.01)”. For the same compound, the “effect on weight of tumor-bearing mice” value ([4]; Example 1, GEM 100 mg/kg ip, Py day 7) was “affected little”, the “effect on weight of tumor-bearing mice” value ([4]; Example 2, GEM total 100 mg/kg ip, Py day 7) was “affected little” and the “effect on weight of tumor-bearing mice” value [4, 12] was “affected little”. For the same compound, the “effect on weight of tumor-bearing mice” value [4, 13] was “affected little” and the “effect on Plasmodium infection” value ([5]; Example 4, GEM 50 mg/kg ip day 6 and day 13) was “inhibitory effect on Plasmodium chabaudi but will not eliminate Plasmodium”.
With Cc1c(O)cccc1C(=O)N[C@@H](CSc1ccccc1)[C@H](O)CN1C[C@H]2CCCC[C@H]2C[C@H]1C(=O)NC(C)(C)C [NFV, nelfinavir] the “effect on Plasmodium infection” value ([1]; Example 12, NFV 400 mg/kg×10) was “relatively small effect on Plasmodium”, the median survival time ([2]; Example 12, NFV 400 mg/kg×10 from day 10, Py day 7) was 34 days and the “Significance, tumor growth” value ([3]; Example 12, NFV 400 mg/kg×10, intraperitoneal injection, from day 10, Py day 7) was “** (“**” represents p<0.01)”. For the same compound, the “toxic and side effects on tumor-bearing mice” value ([4]; Example 12, NFV 400 mg/kg×10) was “will not increase toxic and side effects on tumor-bearing mice” and the “effect on weight of tumor-bearing mice” value ([4]; Example 12, continuous administration of nelfinavir alone) was “relatively small effect on the weight of tumor-bearing mice”.
With [NH2][Pt]([NH2])([Cl])[Cl] [DDP, cis-platinum] the “effect on Plasmodium infection (parasitemia)” value ([1]; Example 8, DDP 1 mg/kg×7 ip, vs single Plasmodium yoelii group) was “inhibitory effect on Plasmodium”, the median survival time ([2]; Example 8, DDP 1 mg/kg×7 ip, Py day 7) was 30 days and the “Significance, tumor growth” value ([3]; Example 8, DDP 1 mg/kg×7 ip every two days from day 7, Py day 7) was “** (“**” represents p<0.01)”.
